Assay results from PubChem BioAssay AID330 (DTP/NCI, 2004).
Values joined by “and” are separate entries in the source; they are usually repeats but may differ in a detail not shown here. Identical values can stand only once. Toxic doses and inconclusive results are not listed. The calls were made as follows: active = survival T/C of 150% or more; inactive = T/C below 125% in these data.

System: P388 leukemia ip, CD2F1 mice, survival T/C
Test: NCI In Vivo Anticancer Drug Screen. Data for tumor model P388 Leukemia (intraperitoneal) in CD2F1 (CDF1) mice
Settings: endpoint: median survival time, higher = longer survival
Summary of the method: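 Mice carrying the transplanted tumor received test compound or vehicle. Survival was recorded in each group, and the value is the treated-group measurement divided by that of the vehicle-treated control group.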

[1] = dose: 12.5 mg/kg/injection, schedule: Q01DX009 (ip), vehicle: saline with Tween-80
[2] = dose: 25.0 mg/kg/injection, schedule: Q01DX009 (ip), vehicle: saline with Tween-80
[3] = dose: 50.0 mg/kg/injection, schedule: Q01DX009 (ip), vehicle: saline with Tween-80
[4] = dose: 100.0 mg/kg/injection, schedule: Q01DX009 (ip), vehicle: saline with Tween-80
[5] = dose: 60.0 mg/kg/injection, schedule: Q01DX005 (ip), vehicle: saline with Tween-80
[6] = dose: 120.0 mg/kg/injection, schedule: Q01DX005 (ip), vehicle: saline with Tween-80
[7] = dose: 240.0 mg/kg/injection, schedule: Q01DX005 (ip), vehicle: saline with Tween-80
[8] = dose: 100.0 mg/kg/injection, schedule: Q04DX002 (ip), vehicle: saline with Tween-80
[9] = dose: 200.0 mg/kg/injection, schedule: Q04DX002 (ip), vehicle: saline with Tween-80
[10] = dose: 50.0 mg/kg/injection, schedule: Q01DX005 (ip), vehicle: Klucel (hydroxypropylcellulose) (HPC)
[11] = dose: 100.0 mg/kg/injection, schedule: Q01DX005 (ip), vehicle: Klucel (hydroxypropylcellulose) (HPC)
[12] = dose: 200.0 mg/kg/injection, schedule: Q01DX005 (ip), vehicle: Klucel (hydroxypropylcellulose) (HPC)
[13] = dose: 50.0 mg/kg/injection, schedule: Q01DX005 (ip), vehicle: saline with Tween-80
[14] = dose: 100.0 mg/kg/injection, schedule: Q01DX005 (ip), vehicle: saline with Tween-80
[15] = dose: 200.0 mg/kg/injection, schedule: Q01DX005 (ip), vehicle: saline with Tween-80

Measured: T/C

CCCCCCC(/C=C/c1ccc(Cl)c(Cl)c1)=N\NC(=O)C[N+](C)(C)C
inactive: [1] 100 % of control | [2] 103 % of control | dose: 50.0 mg/kg/injection, schedule: Q01DX009 (ip), vehicle: saline 98 % of control

Cc1c(C)c2c(c(C)c1OP(=O)(N1CC1)N1CC1)CCC(C)(CCCC(C)CCCC(C)CCCC(C)C)O2 (stereo not given)
inactive: [3] 105 % of control | [4] 105 % of control | dose: 200.0 mg/kg/injection, schedule: Q01DX009 (ip), vehicle: saline with Tween-80 102 % of control

CC(=O)c1c[nH]c(=O)c2cc3c(cc12)OCO3
inactive: [5] 95 % of control | [6] 91 % of control

COc1cc2cc3c(c(O)c2c(O)c1/C=C/C(C)C)C(=O)CC(C)(OC(C)=O)C3 (stereo not given)
inactive: dose: 2.5 mg/kg/injection, schedule: Q01DX005 (ip), vehicle: Klucel (hydroxypropylcellulose) (HPC) 103 % of control | dose: 5.0 mg/kg/injection, schedule: Q01DX005 (ip), vehicle: Klucel (hydroxypropylcellulose) (HPC) 117 % of control

[Br][Pb]([Br])([c]1ccccc1)[c]1ccccc1
inactive: [1] 104 % of control and 112 % of control | [2] 113 % of control (2×) and 114 % of control | [3] 107 % of control and 121 % of control | [4] 98 % of control

CSC1=NC=C(C#N)C2=NC(c3ccc(Cl)cc3)NN12 (stereo not given)
inactive: [5] 90 % of control | [6] 93 % of control | [7] 94 % of control

Clc1ccccc1N/N=c1\nnc2c(Cl)cccc2s1
inactive: dose: 50.0 mg/kg/injection, schedule: Q04DX002 (ip), vehicle: saline with Tween-80 95 % of control | [8] 94 % of control | [9] 91 % of control

CC1(C)OC2C(CO)OC(n3ncc(=S)[nH]c3=O)C2O1 (stereo not given)
inactive: dose: 100.0 mg/kg/injection, schedule: Q04DX003 (ip), vehicle: saline with Tween-80 102 % of control | dose: 200.0 mg/kg/injection, schedule: Q04DX003 (ip), vehicle: saline with Tween-80 86 % of control | dose: 400.0 mg/kg/injection, schedule: Q04DX003 (ip), vehicle: saline with Tween-80 97 % of control

O=[N+]([O-])c1ccc(CSSCc2ccc([N+](=O)[O-])cc2)cc1
inactive: [10] 98 % of control | [11] 100 % of control | [12] 105 % of control

CN(C)CCOc1ccc(/C=C2\CCc3ccccc3C2=O)cc1
inactive: [5] 97 % of control | [6] 94 % of control | [7] 95 % of control

O=C(O)C[N-]c1ccccc1.O=C(O)C[N-]c1ccccc1.[Ni+2]
inactive: dose: 6.25 mg/kg/injection, schedule: Q01DX009 (ip), vehicle: saline with Tween-80 86 % of control | [1] 91 % of control

CCOC(=O)COc1ccc(C2=C(c3ccccc3)C(C)(C)Oc3cc(OC)ccc32)cc1[N+](=O)[O-]
inactive: [13] 97 % of control | [14] 93 % of control | [15] 86 % of control

CC(C)(C)C1CS1 (stereo not given)
inactive: [13] 107 % of control | [14] 107 % of control | [15] 117 % of control

CC(C)(CO)NO
inactive: dose: 50.0 mg/kg/injection, schedule: Q01DX005 (ip), vehicle: saline 106 % of control | dose: 100.0 mg/kg/injection, schedule: Q01DX005 (ip), vehicle: saline 103 % of control | dose: 200.0 mg/kg/injection, schedule: Q01DX005 (ip), vehicle: saline 104 % of control

Cc1ccc(/C=C2/N=C([Se])N(C)C2=O)cc1
inactive: dose: 15.0 mg/kg/injection, schedule: Q01DX005 (ip), vehicle: saline with Tween-80 100 % of control | dose: 30.0 mg/kg/injection, schedule: Q01DX005 (ip), vehicle: saline with Tween-80 95 % of control | [5] 101 % of control | [6] 86 % of control

COc1ccc(NC(=O)N(C)C)cc1OC
inactive: dose: 100.0 mg/kg/injection, schedule: Q04DX003 (ip), vehicle: saline 101 % of control | dose: 200.0 mg/kg/injection, schedule: Q04DX003 (ip), vehicle: saline 107 % of control | dose: 400.0 mg/kg/injection, schedule: Q04DX003 (ip), vehicle: saline 105 % of control

O=C1CS(=O)(=O)C(c2cccnc2)N1CCN1C(=O)CS(=O)(=O)C1c1cccnc1 (stereo not given)
inactive: [8] 97 % of control | [9] 93 % of control | dose: 400.0 mg/kg/injection, schedule: Q04DX002 (ip), vehicle: saline with Tween-80 92 % of control

CCn1c(=O)n(Cc2ccccc2)c(=O)c2ccccc21
inactive: [5] 93 % of control | [6] 93 % of control | [7] 91 % of control

CSc1cccc2c(NCCCCCCCCNc3c4ccccc4nc4c(SC)cccc34)c3ccccc3nc12
inactive: dose: 0.32 mg/kg/injection, schedule: Q01DX009 (ip), vehicle: other 101 % of control | dose: 0.63 mg/kg/injection, schedule: Q01DX009 (ip), vehicle: other 104 % of control | dose: 1.25 mg/kg/injection, schedule: Q01DX009 (ip), vehicle: other 113 % of control | dose: 2.5 mg/kg/injection, schedule: Q01DX009 (ip), vehicle: other 113 % of control | dose: 5.0 mg/kg/injection, schedule: Q01DX009 (ip), vehicle: other 109 % of control | dose: 10.0 mg/kg/injection, schedule: Q01DX009 (ip), vehicle: other 111 % of control

CC(=O)O[C@@H]1C[C@@H]2[C@@]3(C)CC[C@@H](OC(=O)CC(=O)O)C(C)(C)[C@@H]3CC[C@@]2(C)[C@]2(C)CCCC([C@]3(C)CC[C@H](C(C)(C)O)O3)[C@@H]12 (stereo not given in full)
inactive: dose: 25.0 mg/kg/injection, schedule: Q01DX005 (ip), vehicle: Klucel (hydroxypropylcellulose) (HPC) 92 % of control | [10] 99 % of control | [11] 92 % of control and 97 % of control | [12] 86 % of control and 98 % of control | dose: 400.0 mg/kg/injection, schedule: Q01DX005 (ip), vehicle: Klucel (hydroxypropylcellulose) (HPC) 91 % of control

CN(Cc1ccccc1)C(c1ccccc1)C1(c2ccccc2)Cc2ccccc2C(=O)O1 (stereo not given)
inactive: [10] 87 % of control | [11] 87 % of control | [12] 87 % of control

COc1ccc(/C=C\C(C)=N\NC(=S)Nc2ccc(Cl)cc2)cc1
inactive: dose: 100.0 mg/kg/injection, schedule: Q01DX001 (ip), vehicle: Klucel (hydroxypropylcellulose) (HPC) 103 % of control | dose: 200.0 mg/kg/injection, schedule: Q01DX001 (ip), vehicle: Klucel (hydroxypropylcellulose) (HPC) 102 % of control | dose: 400.0 mg/kg/injection, schedule: Q01DX001 (ip), vehicle: Klucel (hydroxypropylcellulose) (HPC) 103 % of control

[CH3][Sn]([CH3])([n]1cnc2ccccc21)[n]1cnc2ccccc21
inactive: dose: 3.12 mg/kg/injection, schedule: Q01DX005 (ip), vehicle: Klucel (hydroxypropylcellulose) (HPC) 111 % of control | dose: 6.25 mg/kg/injection, schedule: Q01DX005 (ip), vehicle: Klucel (hydroxypropylcellulose) (HPC) 115 % of control | dose: 12.5 mg/kg/injection, schedule: Q01DX005 (ip), vehicle: Klucel (hydroxypropylcellulose) (HPC) 118 % of control

COc1cccc2c1C(=O)c1c(O)c3c(c(O)c1C2=O)CC(O)(C(=O)COC(C)=O)CC3OC1CC(NC(C)=O)C(O)C(C)O1 (stereo not given)
inactive: dose: 0.78 mg/kg/injection, schedule: Q01DX009 (ip), vehicle: other 122 % of control | dose: 3.13 mg/kg/injection, schedule: Q01DX009 (ip), vehicle: other 120 % of control
